Tested on: 282377-053-R-J1-PDC complex spheroid viability
Test: Anticancer human tumor 282377-053-R-J1-PDC patient-derived colon adenocarcinoma cell line growth inhibition [POLQ]
Details: for IC50: curve of first compound; for viability, T/C: stronger effect = lower value
Procedure, shortened: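 Growth inhibition in 3D: complex spheroids (tumor PDC, HUVEC, MSC) treated with POLQ inhibitor combinations; where Cmax unknown, highest tested concentration 10 microM, except SN-38 at 1 microM.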

[1] = second compound 0.0316 µM, first compound 0.0316 µM
[2] = second compound 0.0316 µM, first compound 0.1 µM
[3] = second compound 0.0316 µM, first compound 0.316 µM
[4] = second compound 0.0316 µM, first compound 1 µM
[5] = second compound 0.0316 µM, first compound 3.16 µM
[6] = second compound 0.0316 µM, first compound 10 µM
[7] = second compound 0.1 µM, first compound 0.0316 µM
[8] = second compound 0.1 µM, first compound 0.1 µM
[9] = second compound 0.1 µM, first compound 0.316 µM
[10] = second compound 0.1 µM, first compound 1 µM
[11] = second compound 0.1 µM, first compound 3.16 µM
[12] = second compound 0.1 µM, first compound 10 µM
[13] = second compound 0.316 µM, first compound 0.0316 µM
[14] = second compound 0.316 µM, first compound 0.1 µM
[15] = second compound 0.316 µM, first compound 0.316 µM
[16] = second compound 0.316 µM, first compound 1 µM
[17] = second compound 0.316 µM, first compound 3.16 µM
[18] = second compound 0.316 µM, first compound 10 µM
[19] = second compound 1 µM, first compound 0.0316 µM
[20] = second compound 1 µM, first compound 0.1 µM
[21] = second compound 1 µM, first compound 0.316 µM
[22] = second compound 1 µM, first compound 1 µM
[23] = second compound 1 µM, first compound 3.16 µM
[24] = second compound 1 µM, first compound 10 µM
[25] = second compound 3.16 µM, first compound 0.0316 µM
[26] = second compound 3.16 µM, first compound 0.1 µM
[27] = second compound 3.16 µM, first compound 0.316 µM
[28] = second compound 3.16 µM, first compound 1 µM
[29] = second compound 3.16 µM, first compound 3.16 µM
[30] = second compound 3.16 µM, first compound 10 µM
[31] = second compound 10 µM, first compound 0.0316 µM
[32] = second compound 10 µM, first compound 0.1 µM
[33] = second compound 10 µM, first compound 0.316 µM
[34] = second compound 10 µM, first compound 1 µM
[35] = second compound 10 µM, first compound 3.16 µM
[36] = second compound 10 µM, first compound 10 µM
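Also: spheroids exposed to compounds for seven days.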
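For viability, T/C in this document: 100% = DMSO vehicle control viability.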

## C#Cc1c(F)ccc2cc(O)cc(-c3ncc4c(N5CC6CCC(C5)N6)nc(OCC56CCCN5CC(F)C6)nc4c3F)c12 (stereo not drawn) + COC1C(OC(N)=O)C(O)C(Oc2ccc3c(O)c(NC(=O)c4ccc(O)c(CC=C(C)C)c4)c(=O)oc3c2C)OC1(C)C
Second compound 0.0316 µM
  IC50: > 10 µM
Second compound 0.1 µM
  IC50: > 10 µM
Second compound 0.316 µM
  IC50: > 10 µM
Second compound 1 µM
  IC50: > 10 µM
Second compound 3.16 µM
  IC50: > 10 µM
Second compound 10 µM
  IC50: > 10 µM
[1]
  viability, T/C: 111%
[2]
  viability, T/C: 115%
[3]
  viability, T/C: 108%
[4]
  viability, T/C: 117%
[5]
  viability, T/C: 88.8%
[6]
  viability, T/C: 96.9%
[7]
  viability, T/C: 94.4%
[8]
  viability, T/C: 113%
[9]
  viability, T/C: 107%
[10]
  viability, T/C: 90%
[11]
  viability, T/C: 96.9%
[12]
  viability, T/C: 88.1%
[13]
  viability, T/C: 94%
[14]
  viability, T/C: 120%
[15]
  viability, T/C: 93.7%
[16]
  viability, T/C: 91.5%
[17]
  viability, T/C: 92.6%
[18]
  viability, T/C: 85.6%
[19]
  viability, T/C: 104%
[20]
  viability, T/C: 96.5%
[21]
  viability, T/C: 98.9%
[22]
  viability, T/C: 82.5%
[23]
  viability, T/C: 112%
[24]
  viability, T/C: 87.8%
[25]
  viability, T/C: 104%
[26]
  viability, T/C: 88.3%
[27]
  viability, T/C: 95.4%
[28]
  viability, T/C: 82.3%
[29]
  viability, T/C: 92.1%
[30]
  viability, T/C: 87.7%
[31]
  viability, T/C: 100%
[32]
  viability, T/C: 91.2%
[33]
  viability, T/C: 102%
[34]
  viability, T/C: 93.7%
[35]
  viability, T/C: 74.8%
[36]
  viability, T/C: 86.8%

## CC1COCCN1c1cc(C2(O)CC3CCC(C2)O3)c2cnn(-c3ccn[nH]3)c2n1 (stereo not drawn) + COC1C(OC(N)=O)C(O)C(Oc2ccc3c(O)c(NC(=O)c4ccc(O)c(CC=C(C)C)c4)c(=O)oc3c2C)OC1(C)C
Second compound 0.0316 µM
  IC50: 0.43 µM
Second compound 0.1 µM
  IC50: 0.325 µM
Second compound 0.316 µM
  IC50: 0.506 µM
Second compound 1 µM
  IC50: 0.485 µM
Second compound 3.16 µM
  IC50: 0.456 µM
Second compound 10 µM
  IC50: 0.307 µM
[1]
  viability, T/C: 112%
[2]
  viability, T/C: 89.5%
[3]
  viability, T/C: 53.8%
[4]
  viability, T/C: 35.9%
[5]
  viability, T/C: 24.6%
[6]
  viability, T/C: 20.8%
[7]
  viability, T/C: 88.8%
[8]
  viability, T/C: 92.1%
[9]
  viability, T/C: 50.4%
[10]
  viability, T/C: 31.4%
[11]
  viability, T/C: 28.2%
[12]
  viability, T/C: 18.8%
[13]
  viability, T/C: 92.8%
[14]
  viability, T/C: 91.3%
[15]
  viability, T/C: 60.8%
[16]
  viability, T/C: 32.9%
[17]
  viability, T/C: 34.8%
[18]
  viability, T/C: 18.7%
[19]
  viability, T/C: 92.4%
[20]
  viability, T/C: 77.2%
[21]
  viability, T/C: 57.9%
[22]
  viability, T/C: 36.3%
[23]
  viability, T/C: 28.4%
[24]
  viability, T/C: 19.5%
[25]
  viability, T/C: 115%
[26]
  viability, T/C: 74.5%
[27]
  viability, T/C: 54.8%
[28]
  viability, T/C: 42%
[29]
  viability, T/C: 33%
[30]
  viability, T/C: 18.6%
[31]
  viability, T/C: 101%
[32]
  viability, T/C: 73.7%
[33]
  viability, T/C: 47.3%
[34]
  viability, T/C: 36.4%
[35]
  viability, T/C: 27.9%
[36]
  viability, T/C: 22.6%

## CCc1cc2c(N3CCc4c(cc(Cn5ccnc5)cc4-c4cn(C)nc4C(F)(F)F)C3=O)cc(C)nc2c(OC)n1 + COC1C(OC(N)=O)C(O)C(Oc2ccc3c(O)c(NC(=O)c4ccc(O)c(CC=C(C)C)c4)c(=O)oc3c2C)OC1(C)C
Second compound 0.0316 µM
  IC50: > 10 µM
Second compound 0.1 µM
  IC50: > 10 µM
Second compound 0.316 µM
  IC50: > 10 µM
Second compound 1 µM
  IC50: > 10 µM
Second compound 3.16 µM
  IC50: > 10 µM
Second compound 10 µM
  IC50: > 10 µM
[1]
  viability, T/C: 130%
[2]
  viability, T/C: 152%
[3]
  viability, T/C: 172%
[4]
  viability, T/C: 158%
[5]
  viability, T/C: 123%
[6]
  viability, T/C: 74.5%
[7]
  viability, T/C: 120%
[8]
  viability, T/C: 157%
[9]
  viability, T/C: 124%
[10]
  viability, T/C: 131%
[11]
  viability, T/C: 134%
[12]
  viability, T/C: 68.9%
[13]
  viability, T/C: 132%
[14]
  viability, T/C: 126%
[15]
  viability, T/C: 132%
[16]
  viability, T/C: 140%
[17]
  viability, T/C: 119%
[18]
  viability, T/C: 67.2%
[19]
  viability, T/C: 141%
[20]
  viability, T/C: 128%
[21]
  viability, T/C: 143%
[22]
  viability, T/C: 158%
[23]
  viability, T/C: 108%
[24]
  viability, T/C: 80.7%
[25]
  viability, T/C: 109%
[26]
  viability, T/C: 125%
[27]
  viability, T/C: 133%
[28]
  viability, T/C: 126%
[29]
  viability, T/C: 128%
[30]
  viability, T/C: 73.8%
[31]
  viability, T/C: 111%
[32]
  viability, T/C: 109%
[33]
  viability, T/C: 114%
[34]
  viability, T/C: 143%
[35]
  viability, T/C: 123%
[36]
  viability, T/C: 80%

## O=C(Nc1ccc(O)c(NS(=O)(=O)c2ccc(F)cc2)c1)c1ccc(-c2ccccc2)cc1 + COC1C(OC(N)=O)C(O)C(Oc2ccc3c(O)c(NC(=O)c4ccc(O)c(CC=C(C)C)c4)c(=O)oc3c2C)OC1(C)C
Second compound 0.0316 µM
  IC50: > 10 µM
Second compound 0.1 µM
  IC50: > 10 µM
Second compound 0.316 µM
  IC50: > 10 µM
Second compound 1 µM
  IC50: > 10 µM
Second compound 3.16 µM
  IC50: > 10 µM
Second compound 10 µM
  IC50: > 10 µM
[1]
  viability, T/C: 120%
[2]
  viability, T/C: 117%
[3]
  viability, T/C: 109%
[4]
  viability, T/C: 113%
[5]
  viability, T/C: 133%
[6]
  viability, T/C: 94.5%
[7]
  viability, T/C: 122%
[8]
  viability, T/C: 125%
[9]
  viability, T/C: 117%
[10]
  viability, T/C: 127%
[11]
  viability, T/C: 127%
[12]
  viability, T/C: 97%
[13]
  viability, T/C: 115%
[14]
  viability, T/C: 108%
[15]
  viability, T/C: 100%
[16]
  viability, T/C: 108%
[17]
  viability, T/C: 112%
[18]
  viability, T/C: 94.5%
[19]
  viability, T/C: 116%
[20]
  viability, T/C: 99.6%
[21]
  viability, T/C: 118%
[22]
  viability, T/C: 115%
[23]
  viability, T/C: 120%
[24]
  viability, T/C: 122%
[25]
  viability, T/C: 98.2%
[26]
  viability, T/C: 118%
[27]
  viability, T/C: 106%
[28]
  viability, T/C: 114%
[29]
  viability, T/C: 99.8%
[30]
  viability, T/C: 104%
[31]
  viability, T/C: 127%
[32]
  viability, T/C: 95.3%
[33]
  viability, T/C: 94.9%
[34]
  viability, T/C: 127%
[35]
  viability, T/C: 104%
[36]
  viability, T/C: 93.5%

Source: PubChem BioAssay AID1963852 (Molecular Pharmacology Branch, DTP, NCI, 2024)
